The kinase profiling compilation of Christmann-Franck et al. (2016)

Key:
Experiment in all cases: KINOMEscan competition binding
Details in all cases: compound 10.0 µM
ADCK3 (human) = ADCK3 (human) (UniProt Q8NI60)
AKT2 (human) = AKT2 (human) (UniProt P31751)
AURKB (human) = AURKB (human) (UniProt Q96GD4)
AXL (human) = AXL (human) (UniProt P30530)
BRAF (human) = BRAF (human) (UniProt P15056)
CASK (human) = CASK (human) (UniProt O14936)
CDK11B (human) = CDK11B (human) (UniProt P21127)
CDK19 (human) = CDK19 (human) (UniProt Q9BWU1)
CDK3 (human) = CDK3 (human) (UniProt Q00526)
CSNK1D (human) = CSNK1D (human) (UniProt P48730)
DCLK1 (human) = DCLK1 (human) (UniProt O15075)
HCK (human) = HCK (human) (UniProt P08631)
HIPK1 (human) = HIPK1 (human) (UniProt Q86Z02)
KDR (human) = KDR (human) (UniProt P35968)
KIT (human) = KIT (human) (UniProt P10721)
Sequence of KIT (human) (P10721 whole entry, looked up): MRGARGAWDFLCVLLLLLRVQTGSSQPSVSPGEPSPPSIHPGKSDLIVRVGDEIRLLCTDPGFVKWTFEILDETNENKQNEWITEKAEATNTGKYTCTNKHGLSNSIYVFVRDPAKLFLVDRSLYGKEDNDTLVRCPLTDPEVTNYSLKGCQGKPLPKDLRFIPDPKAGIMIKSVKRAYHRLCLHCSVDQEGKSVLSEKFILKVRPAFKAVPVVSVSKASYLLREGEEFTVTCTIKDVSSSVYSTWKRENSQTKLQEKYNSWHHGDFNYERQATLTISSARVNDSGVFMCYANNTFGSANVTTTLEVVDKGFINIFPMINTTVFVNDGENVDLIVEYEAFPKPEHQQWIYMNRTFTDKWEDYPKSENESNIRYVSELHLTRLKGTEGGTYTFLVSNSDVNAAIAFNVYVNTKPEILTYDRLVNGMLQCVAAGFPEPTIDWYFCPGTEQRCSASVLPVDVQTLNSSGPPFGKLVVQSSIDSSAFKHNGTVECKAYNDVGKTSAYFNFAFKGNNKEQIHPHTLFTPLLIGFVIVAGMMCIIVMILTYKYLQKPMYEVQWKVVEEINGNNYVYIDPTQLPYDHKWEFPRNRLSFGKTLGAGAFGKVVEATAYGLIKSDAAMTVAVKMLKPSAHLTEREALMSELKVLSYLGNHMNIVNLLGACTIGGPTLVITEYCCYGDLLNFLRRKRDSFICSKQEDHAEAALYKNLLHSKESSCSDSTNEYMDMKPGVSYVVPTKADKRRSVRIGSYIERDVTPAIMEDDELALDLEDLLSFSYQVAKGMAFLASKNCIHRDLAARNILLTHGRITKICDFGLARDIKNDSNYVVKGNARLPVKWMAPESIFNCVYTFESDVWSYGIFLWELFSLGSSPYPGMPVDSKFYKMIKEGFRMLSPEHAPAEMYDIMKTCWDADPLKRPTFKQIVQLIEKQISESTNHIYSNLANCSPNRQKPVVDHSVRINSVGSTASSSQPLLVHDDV

[1] = system: KIT (human), P10721 [D816V]
Sequence of KIT (human), P10721 [D816V] (P10721 whole entry D816V, looked up): as the sequence (P10721 whole entry, looked up) above, with D816V counted along it

[2] = system: KIT (human), P10721 [V559D/T670I]
Sequence of KIT (human), P10721 [V559D/T670I] (P10721 whole entry V559D/T670I, looked up): as the sequence (P10721 whole entry, looked up) above, with V559D, T670I counted along it

MAP2K1 (human) = MAP2K1 (human) (UniProt Q02750)
MAP3K5 (human) = MAP3K5 (human) (UniProt Q99683)
MAP3K7 (human) = MAP3K7 (human) (UniProt O43318)
MAPK14 (human) = MAPK14 (human) (UniProt Q16539)
MATK (human) = MATK (human) (UniProt P42679)
MET (human) = MET (human) (UniProt P08581)
PAK1 (human) = PAK1 (human) (UniProt Q13153)
PAK2 (human) = PAK2 (human) (UniProt Q13177)
PDGFRA (human) = PDGFRA (human) (UniProt P16234)
PIK3CA (human) = PIK3CA (human) (UniProt P42336)
Sequence of PIK3CA (human) (P42336 whole entry, looked up): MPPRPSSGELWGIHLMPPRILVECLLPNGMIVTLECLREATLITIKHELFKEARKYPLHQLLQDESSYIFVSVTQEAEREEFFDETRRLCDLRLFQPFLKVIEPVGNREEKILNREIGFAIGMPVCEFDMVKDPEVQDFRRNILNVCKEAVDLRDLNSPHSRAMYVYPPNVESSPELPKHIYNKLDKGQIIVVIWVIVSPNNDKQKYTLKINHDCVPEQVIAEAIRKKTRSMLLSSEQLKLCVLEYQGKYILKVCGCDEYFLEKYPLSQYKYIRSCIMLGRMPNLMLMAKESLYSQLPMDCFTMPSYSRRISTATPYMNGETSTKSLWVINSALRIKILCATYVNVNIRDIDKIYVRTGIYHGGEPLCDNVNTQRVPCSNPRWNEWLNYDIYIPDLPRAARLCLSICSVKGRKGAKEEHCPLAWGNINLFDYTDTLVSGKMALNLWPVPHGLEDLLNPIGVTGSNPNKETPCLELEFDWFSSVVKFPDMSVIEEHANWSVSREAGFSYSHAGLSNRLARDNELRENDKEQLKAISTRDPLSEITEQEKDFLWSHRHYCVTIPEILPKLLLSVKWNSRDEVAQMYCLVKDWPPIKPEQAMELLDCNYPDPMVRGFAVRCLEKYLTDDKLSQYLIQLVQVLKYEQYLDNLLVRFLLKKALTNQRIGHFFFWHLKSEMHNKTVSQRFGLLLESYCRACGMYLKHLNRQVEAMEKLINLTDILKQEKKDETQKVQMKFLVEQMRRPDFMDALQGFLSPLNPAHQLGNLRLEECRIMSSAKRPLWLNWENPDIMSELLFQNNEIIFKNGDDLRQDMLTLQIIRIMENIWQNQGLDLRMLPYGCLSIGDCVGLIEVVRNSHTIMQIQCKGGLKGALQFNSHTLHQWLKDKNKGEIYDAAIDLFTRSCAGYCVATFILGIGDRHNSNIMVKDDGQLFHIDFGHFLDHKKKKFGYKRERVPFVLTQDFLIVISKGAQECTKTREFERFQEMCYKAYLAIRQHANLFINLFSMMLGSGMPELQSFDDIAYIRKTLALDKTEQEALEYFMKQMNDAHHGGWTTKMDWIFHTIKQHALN

PKN1 (human) = PKN1 (human) (UniProt Q16512)
PRKACA (human) = PRKACA (human) (UniProt P17612)
RET (human) = RET (human) (UniProt P07949)
ROCK2 (human) = ROCK2 (human) (UniProt O75116)
SRC (human) = SRC (human) (UniProt P12931)
STK16 (human) = STK16 (human) (UniProt O75716)
STK17A (human) = STK17A (human) (UniProt Q9UEE5)
STK25 (human) = STK25 (human) (UniProt O00506)
Sequence of STK25 (human) (O00506 whole entry, looked up): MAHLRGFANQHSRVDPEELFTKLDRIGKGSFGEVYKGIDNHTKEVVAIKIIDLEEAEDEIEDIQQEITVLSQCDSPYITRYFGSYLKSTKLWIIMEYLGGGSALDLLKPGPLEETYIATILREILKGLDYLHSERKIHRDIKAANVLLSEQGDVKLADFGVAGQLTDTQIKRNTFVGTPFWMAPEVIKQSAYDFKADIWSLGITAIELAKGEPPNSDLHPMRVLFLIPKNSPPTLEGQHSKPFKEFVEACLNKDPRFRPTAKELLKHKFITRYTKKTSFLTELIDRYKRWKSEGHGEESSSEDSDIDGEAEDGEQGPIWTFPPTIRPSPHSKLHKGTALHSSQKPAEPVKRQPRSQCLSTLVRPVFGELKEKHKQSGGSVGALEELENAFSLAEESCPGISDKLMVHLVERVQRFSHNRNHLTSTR

TEK (human) = TEK (human) (UniProt Q02763)
TGFBR1 (human) = TGFBR1 (human) (UniProt P36897)
TLK1 (human) = TLK1 (human) (UniProt Q9UKI8)
ULK2 (human) = ULK2 (human) (UniProt Q8IYT8)
WNK1 (human) = WNK1 (human) (UniProt Q9H4A3)
Sequence of WNK1 (human) (Q9H4A3 whole entry, looked up): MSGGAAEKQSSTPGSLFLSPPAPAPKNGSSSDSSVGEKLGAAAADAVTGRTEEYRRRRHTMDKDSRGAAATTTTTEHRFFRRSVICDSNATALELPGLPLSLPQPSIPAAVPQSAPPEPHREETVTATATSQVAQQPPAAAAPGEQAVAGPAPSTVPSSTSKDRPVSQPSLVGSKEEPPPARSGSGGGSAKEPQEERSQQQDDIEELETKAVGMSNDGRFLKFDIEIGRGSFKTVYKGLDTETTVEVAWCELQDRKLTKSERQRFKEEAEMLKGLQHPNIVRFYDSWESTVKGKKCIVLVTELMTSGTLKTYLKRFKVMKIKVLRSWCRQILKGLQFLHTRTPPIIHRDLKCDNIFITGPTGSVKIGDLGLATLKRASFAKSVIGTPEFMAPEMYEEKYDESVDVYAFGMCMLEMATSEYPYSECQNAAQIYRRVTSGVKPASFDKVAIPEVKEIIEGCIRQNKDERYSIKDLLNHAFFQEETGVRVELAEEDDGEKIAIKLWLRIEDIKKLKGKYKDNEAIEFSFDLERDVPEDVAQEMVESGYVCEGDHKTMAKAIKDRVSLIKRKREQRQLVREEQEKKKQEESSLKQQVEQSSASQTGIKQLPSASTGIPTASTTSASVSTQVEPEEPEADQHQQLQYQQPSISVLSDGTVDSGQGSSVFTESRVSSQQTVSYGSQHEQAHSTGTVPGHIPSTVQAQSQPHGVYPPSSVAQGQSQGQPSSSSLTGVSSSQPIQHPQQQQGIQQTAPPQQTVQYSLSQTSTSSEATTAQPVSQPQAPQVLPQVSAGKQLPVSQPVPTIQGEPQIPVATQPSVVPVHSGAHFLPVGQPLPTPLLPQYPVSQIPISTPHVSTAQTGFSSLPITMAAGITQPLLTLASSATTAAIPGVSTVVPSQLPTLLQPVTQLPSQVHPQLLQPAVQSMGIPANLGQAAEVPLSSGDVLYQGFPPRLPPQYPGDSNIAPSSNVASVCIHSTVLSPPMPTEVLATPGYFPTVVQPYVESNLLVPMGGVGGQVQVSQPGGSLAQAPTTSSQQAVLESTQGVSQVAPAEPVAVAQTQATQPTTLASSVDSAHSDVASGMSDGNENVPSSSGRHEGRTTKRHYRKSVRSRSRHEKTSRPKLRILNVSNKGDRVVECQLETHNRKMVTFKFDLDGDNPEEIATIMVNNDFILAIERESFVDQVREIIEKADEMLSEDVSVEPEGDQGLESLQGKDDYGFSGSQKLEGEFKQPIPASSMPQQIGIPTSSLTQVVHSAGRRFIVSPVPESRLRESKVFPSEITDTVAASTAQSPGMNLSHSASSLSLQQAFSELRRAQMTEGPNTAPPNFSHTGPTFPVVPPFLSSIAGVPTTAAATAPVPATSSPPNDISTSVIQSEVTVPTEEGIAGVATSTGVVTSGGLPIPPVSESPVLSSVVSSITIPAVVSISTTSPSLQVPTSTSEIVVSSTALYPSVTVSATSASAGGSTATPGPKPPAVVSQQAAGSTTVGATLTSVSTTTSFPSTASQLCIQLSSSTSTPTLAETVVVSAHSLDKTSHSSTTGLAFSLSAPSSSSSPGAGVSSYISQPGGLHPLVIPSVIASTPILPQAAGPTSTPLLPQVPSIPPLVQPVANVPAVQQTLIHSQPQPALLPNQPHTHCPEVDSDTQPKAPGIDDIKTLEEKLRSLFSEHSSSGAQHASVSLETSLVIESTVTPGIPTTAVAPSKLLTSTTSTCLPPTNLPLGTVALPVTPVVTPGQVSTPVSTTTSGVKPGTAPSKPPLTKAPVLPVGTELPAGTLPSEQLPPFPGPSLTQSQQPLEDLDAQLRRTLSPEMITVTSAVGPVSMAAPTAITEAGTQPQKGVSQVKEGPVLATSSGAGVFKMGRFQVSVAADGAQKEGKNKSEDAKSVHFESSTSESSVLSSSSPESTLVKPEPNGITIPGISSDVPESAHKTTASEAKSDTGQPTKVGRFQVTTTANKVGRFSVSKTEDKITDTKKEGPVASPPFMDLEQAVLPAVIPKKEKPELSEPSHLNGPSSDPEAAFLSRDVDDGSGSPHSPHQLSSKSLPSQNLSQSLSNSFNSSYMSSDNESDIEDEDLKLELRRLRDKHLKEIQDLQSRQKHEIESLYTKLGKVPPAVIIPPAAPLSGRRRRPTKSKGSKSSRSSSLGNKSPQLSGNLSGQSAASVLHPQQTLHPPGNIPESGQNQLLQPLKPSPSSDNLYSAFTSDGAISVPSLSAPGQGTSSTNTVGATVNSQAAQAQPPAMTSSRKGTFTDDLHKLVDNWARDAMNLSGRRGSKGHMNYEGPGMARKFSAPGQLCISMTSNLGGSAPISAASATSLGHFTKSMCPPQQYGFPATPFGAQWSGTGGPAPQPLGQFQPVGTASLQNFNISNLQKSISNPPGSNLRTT

ZAP70 (human) = ZAP70 (human) (UniProt P43403)

- kinase still bound, per cent of control (ADCK3 (human)): 100%
- kinase still bound, per cent of control (AKT2 (human)): 96%
- kinase still bound, per cent of control (AURKB (human)): 4.7%
- kinase still bound, per cent of control (AXL (human)): 25%
- kinase still bound, per cent of control (BRAF (human)): 3.8%
- kinase still bound, per cent of control (CASK (human)): 20%
- kinase still bound, per cent of control (CDK11B (human)): 69%
- kinase still bound, per cent of control (CDK19 (human)): 0.35%
- kinase still bound, per cent of control (CDK3 (human)): 44%
- kinase still bound, per cent of control (CSNK1D (human)): 88%
- kinase still bound, per cent of control (DCLK1 (human)): 82%
- kinase still bound, per cent of control (HCK (human)): 32%
- kinase still bound, per cent of control (HIPK1 (human)): 52%
- kinase still bound, per cent of control (KDR (human)): 0%
- kinase still bound, per cent of control (KIT (human)): 0.05%
- kinase still bound, per cent of control [1]: 1.7%
- kinase still bound, per cent of control [2]: 0.15%
- kinase still bound, per cent of control (MAP2K1 (human)): 76%
- kinase still bound, per cent of control (MAP3K5 (human)): 90%
- kinase still bound, per cent of control (MAP3K7 (human)): 7.2%
- kinase still bound, per cent of control (MAPK14 (human)): 0%
- kinase still bound, per cent of control (MATK (human)): 100%
- kinase still bound, per cent of control (MET (human)): 58%
- kinase still bound, per cent of control (PAK1 (human)): 86%
- kinase still bound, per cent of control (PAK2 (human)): 97%
- kinase still bound, per cent of control (PDGFRA (human)): 0.4%
- kinase still bound, per cent of control (PIK3CA (human)): 100%
- kinase still bound, per cent of control (PKN1 (human)): 100%
- kinase still bound, per cent of control (PRKACA (human)): 69%
- kinase still bound, per cent of control (RET (human)): 0%
- kinase still bound, per cent of control (ROCK2 (human)): 63%
- kinase still bound, per cent of control (SRC (human)): 70%
- kinase still bound, per cent of control (STK16 (human)): 100%
- kinase still bound, per cent of control (STK17A (human)): 62%
- kinase still bound, per cent of control (STK25 (human)): 79%
- kinase still bound, per cent of control (TEK (human)): 25%
- kinase still bound, per cent of control (TGFBR1 (human)): 93%
- kinase still bound, per cent of control (TLK1 (human)): 100%
- kinase still bound, per cent of control (ULK2 (human)): 82%
- kinase still bound, per cent of control (WNK1 (human)): 100%
- kinase still bound, per cent of control (ZAP70 (human)): 100%
Compound: O=C(Nc1ccc(Oc2ncnc3[nH]ncc23)cc1)Nc1ccc(Cl)c(C(F)(F)F)c1
